Source: PubChem BioAssay (NCI)
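Each compound was tested at five concentrations against cells in 96-well plates for 48 hours. TGI is the concentration that stops growth completely.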

What was measured:
Test in all cases: NCI tumour cell line growth inhibition, 48 h
786-0 renal = tested on: 786-0 renal
A498 renal = tested on: A498 renal
A549 NSCLC = tested on: A549 NSCLC
ACHN renal = tested on: ACHN renal
CAKI-1 renal = tested on: CAKI-1 renal
CCRF-CEM leukemia = tested on: CCRF-CEM leukemia
COLO 205 colon = tested on: COLO 205 colon
DLD-1 colon = tested on: DLD-1 colon
DMS 114 small cell lung = tested on: DMS 114 small cell lung
DMS 273 small cell lung = tested on: DMS 273 small cell lung
EKVX NSCLC = tested on: EKVX NSCLC
HCC-2998 colon = tested on: HCC-2998 colon
HCT-116 colon = tested on: HCT-116 colon
HCT-15 colon = tested on: HCT-15 colon
HL-60(TB) leukemia = tested on: HL-60(TB) leukemia
HOP-18 NSCLC = tested on: HOP-18 NSCLC
HOP-62 NSCLC = tested on: HOP-62 NSCLC
HOP-92 NSCLC = tested on: HOP-92 NSCLC
HT29 colon = tested on: HT29 colon
IGROV1 ovarian = tested on: IGROV1 ovarian
K-562 leukemia = tested on: K-562 leukemia
KM12 colon = tested on: KM12 colon
KM20L2 colon = tested on: KM20L2 colon
LOX IMVI melanoma = tested on: LOX IMVI melanoma
LXFL 529 NSCLC = tested on: LXFL 529 NSCLC
M14 melanoma = tested on: M14 melanoma
M19-MEL melanoma = tested on: M19-MEL melanoma
MALME-3M melanoma = tested on: MALME-3M melanoma
MOLT-4 leukemia = tested on: MOLT-4 leukemia
NCI-H226 lung = tested on: NCI-H226 lung
NCI-H23 lung = tested on: NCI-H23 lung
NCI-H460 lung = tested on: NCI-H460 lung
OVCAR-3 ovarian = tested on: OVCAR-3 ovarian
OVCAR-4 ovarian = tested on: OVCAR-4 ovarian
OVCAR-5 ovarian = tested on: OVCAR-5 ovarian
OVCAR-8 ovarian = tested on: OVCAR-8 ovarian
RPMI-8226 leukemia = tested on: RPMI-8226 leukemia
RXF 393 renal = tested on: RXF 393 renal
RXF-631 renal = tested on: RXF-631 renal
SF-268 CNS = tested on: SF-268 CNS
SF-295 CNS = tested on: SF-295 CNS
SF-539 CNS = tested on: SF-539 CNS
SK-MEL-2 melanoma = tested on: SK-MEL-2 melanoma
SK-MEL-28 melanoma = tested on: SK-MEL-28 melanoma
SK-MEL-5 melanoma = tested on: SK-MEL-5 melanoma
SK-OV-3 ovarian = tested on: SK-OV-3 ovarian
SN12C renal = tested on: SN12C renal
SNB-19 CNS = tested on: SNB-19 CNS
SNB-75 CNS = tested on: SNB-75 CNS
SNB-78 CNS = tested on: SNB-78 CNS
SR leukemia = tested on: SR leukemia
SW-620 colon = tested on: SW-620 colon
TK-10 renal = tested on: TK-10 renal
U251 CNS = tested on: U251 CNS
UACC-257 melanoma = tested on: UACC-257 melanoma
UACC-62 melanoma = tested on: UACC-62 melanoma
UO-31 renal = tested on: UO-31 renal
XF 498 CNS = tested on: XF 498 CNS

Measured: TGI

CC1(C(=O)O)CCC[C@@]2(C)C1CC[C@@]1(C)c3cocc3CCC21 (stereo partly drawn)
> 100 µM: all assays above
